{
  "source": "patent US20210145797A1",
  "about": "“COMPOSITIONS FOR TREATING SKIN” (UNIVERSITY OF FLORIDA RESEARCH FOUNDATION, INCORPORATED, priority 2018, published 2021)",
  "origin": "cited, not measured here",
  "test_system": "herpes simplex",
  "settings": "topical over-the-counter treatment of herpes simplex",
  "data": [
    {"smiles": "CCCCCCCCCCCCCCCCCCCCCCO", "note": "[N-docosanol]", "values": [
      {"measurement": "improvement of time of healing", "setting": "4.1 days to 2.5 days", "value": 1.5, "unit": "days"},
      {"measurement": "time of healing (median)", "setting": "from a median of 4.1 days", "value": 2.5, "unit": "days"}
    ]}
  ]
}
